In ChEMBL document CHEMBL4616582, “Green recipes to quinoline: A review” (Eur J Med Chem, 2019):
≈ marks a conversion by molar mass, not a printed value. Values belong to the molecule of their own block, whether it stands above or below them.

What was measured:
B16-F10 = assay: Cytotoxicity against mouse B16F10 cells assessed as reduction in cell viability; format: functional, cell-based
HepG2 = assay: Cytotoxicity against human HepG2 cells assessed as reduction in cell viability by MTT assay; format: functional, cell-based
Plasmodium falciparum = assay: Antimalarial activity against chloroquine and quinine sensitive Plasmodium falciparum; format: functional, organism-based
Bacillus subtilis = assay: Antibacterial activity against Bacillus subtilis MTCC 121 after 24 hrs by agar well diffusion method; format: functional; settings: MTCC 121, 24 h

SMILES: O=Cc1c(Cl)cccc1Cl
IC50 (B16-F10): 70.7 µM

SMILES: O=Cc1ccc(Cl)cc1
IC50 (B16-F10): 70.7 µM

SMILES: O=Cc1ccc(Cl)cc1Cl
IC50 (B16-F10): 70.7 µM

SMILES: O=Cc1cccc(Br)c1
IC50 (B16-F10): 70.7 µM

SMILES: O=Cc1ccc([N+](=O)[O-])cc1
IC50 (B16-F10): 70.7 µM

SMILES: Cc1ccc(C=O)cc1
IC50 (B16-F10): 70.7 µM

SMILES: O=c1cc(O)c2cc(Br)ccc2o1
IC50 (B16-F10): 70.7 µM

SMILES: CC(=O)c1ccc(F)cc1
IC50 (HepG2): 984 nM

SMILES: O=Cc1ccc(F)cc1
IC50 (B16-F10): 70.7 µM

SMILES: O=Cc1ccccc1Br
IC50 (B16-F10): 70.7 µM

SMILES: O=Cc1cccc2ccccc12
IC50 (B16-F10): 70.7 µM

SMILES: O=Cc1ccc(Br)cc1
IC50 (B16-F10): 70.7 µM

SMILES: O=c1cc(O)c2cc(Cl)ccc2o1
IC50 (B16-F10): 70.7 µM

SMILES: CC(=O)c1ccc(Br)cc1
IC50 (HepG2): 984 nM

IC50 (Plasmodium falciparum): 0.042 to 0.09 µg/mL (≈ 0.0642 to 0.137 µM)
SMILES: COc1ccc(NN2C(N)=C(C#N)C(c3c(C)nn(-c4ccccc4)c3Oc3cccc(C(F)(F)F)c3)C3=C2CC(C)(C)CC3=O)cc1 (stereo not drawn)

SMILES: O=Cc1ccc(C(F)(F)F)cc1
IC50 (B16-F10): 70.7 µM

SMILES: O=c1oc2ccccc2c2nc3c(ccc4cc[nH]c43)c(-c3c(Cl)cccc3Cl)c12
IC50 (B16-F10): 70.7 µM

SMILES: O=c1c2ccc(Br)cc2n(-c2ccccc2)c2ss/c(=N\c3ccccc3)c12
IC50 (HepG2): 984 nM

MIC (Bacillus subtilis): 8 µg/mL (≈ 14.5 µM)
SMILES: CC1(C)CC(=O)C2=C(C1)N(c1ccc(Br)cc1)C(=O)C21C2=C(Nc3ccccc31)c1ccccc1C2=O (stereo not drawn)

IC50 (Plasmodium falciparum): 0.042 to 0.09 µg/mL (≈ 0.0597 to 0.128 µM)
SMILES: Cc1nn(-c2ccccc2)c(Oc2cccc(C(F)(F)F)c2)c1C1C(C#N)=C(N)N(Nc2ccc(Br)cc2)C2=C1C(=O)CC(C)(C)C2 (stereo not drawn)

MIC (Bacillus subtilis): 8 µg/mL (≈ 14.5 µM)
SMILES: COc1ccc(N2C(=O)C3(C4=C(Nc5ccc(Br)cc53)c3ccccc3C4=O)C3=C2CCCC3=O)cc1 (stereo not drawn)

SMILES: O=c1c2c(Cl)ccc(Cl)c2n(-c2ccccc2)c2ss/c(=N\c3ccccc3)c12
IC50 (HepG2): 984 nM

SMILES: CC(=O)c1ccccc1Cl
IC50 (HepG2): 984 nM

IC50 (Plasmodium falciparum): 0.042 to 0.09 µg/mL (≈ 0.0695 to 0.149 µM)
SMILES: COc1ccc(NN2C(N)=C(C#N)C(c3c(C)nn(-c4ccccc4)c3Oc3ccccc3F)C3=C2CC(C)(C)CC3=O)cc1 (stereo not drawn)

MIC (Bacillus subtilis): 8 µg/mL (≈ 15.5 µM)
SMILES: CC1(C)CC(=O)C2=C(C1)N(c1ccccc1)C(=O)C21C2=C(Nc3ccc([N+](=O)[O-])cc31)c1ccccc1C2=O (stereo not drawn)

SMILES: O=c1c2ccc(Cl)cc2n(-c2ccccc2)c2ss/c(=N\c3ccccc3)c12
IC50 (HepG2): 984 nM

SMILES: Cc1ccc(-c2c3ccc4cc[nH]c4c3nc3c2c(=O)oc2ccccc23)cc1
IC50 (B16-F10): 70.7 µM

MIC (Bacillus subtilis): 8 µg/mL (≈ 15.8 µM)
SMILES: CC1(C)CC(=O)C2=C(C1)N(c1ccc(Cl)cc1)C(=O)C21C2=C(Nc3ccccc31)c1ccccc1C2=O (stereo not drawn)

SMILES: O=c1oc2ccccc2c2nc3c(ccc4cc[nH]c43)c(-c3cccc4ccccc34)c12
IC50 (B16-F10): 70.7 µM

MIC (Bacillus subtilis): 8 µg/mL (≈ 15.1 µM)
SMILES: O=C1CCCC2=C1C1(C(=O)N2C2CCCCC2)C2=C(Nc3ccc(Br)cc31)c1ccccc1C2=O (stereo not drawn)

SMILES: CC(=O)c1cc(Cl)ccc1Cl
IC50 (HepG2): 984 nM

SMILES: O=c1c2cc(Cl)c(Cl)cc2n(-c2ccccc2)c2ss/c(=N\c3ccccc3)c12
IC50 (HepG2): 984 nM

SMILES: O=c1c2c(Cl)cccc2n(-c2ccccc2)c2ss/c(=N\c3ccccc3)c12
IC50 (HepG2): 984 nM

MIC (Bacillus subtilis): 8 µg/mL (≈ 15.9 µM)
SMILES: COc1ccc(N2C(=O)C3(C4=C(Nc5ccccc53)c3ccccc3C4=O)C3=C2CC(C)(C)CC3=O)cc1 (stereo not drawn)

IC50 (Plasmodium falciparum): 0.042 to 0.09 µg/mL (≈ 0.0643 to 0.138 µM)
SMILES: Cc1nn(-c2ccccc2)c(Oc2cccc(F)c2)c1C1C(C#N)=C(N)N(Nc2ccc(Br)cc2)C2=C1C(=O)CC(C)(C)C2 (stereo not drawn)

MIC (Bacillus subtilis): 8 µg/mL (≈ 15.3 µM)
SMILES: O=C1CCCC2=C1C1(C(=O)N2c2ccccc2)C2=C(Nc3ccc(Br)cc31)c1ccccc1C2=O (stereo not drawn)

MIC (Bacillus subtilis): 8 µg/mL (≈ 15.9 µM)
SMILES: Cc1ccc(N2C(=O)C3(C4=C(Nc5ccc([N+](=O)[O-])cc53)c3ccccc3C4=O)C3=C2CCCC3=O)cc1 (stereo not drawn)

SMILES: O=c1oc2ccccc2c2nc3c(ccc4cc[nH]c43)c(-c3ccc(Cl)cc3Cl)c12
IC50 (B16-F10): 70.7 µM

SMILES: O=c1oc2ccccc2c2nc3c(ccc4cc[nH]c43)c(-c3ccc(Br)cc3)c12
IC50 (B16-F10): 70.7 µM

MIC (Bacillus subtilis): 8 µg/mL (≈ 13.3 µM)
SMILES: O=C1CCCC2=C1C1(C(=O)N2c2ccc(Br)cc2)C2=C(Nc3ccc(Br)cc31)c1ccccc1C2=O (stereo not drawn)

SMILES: O=c1oc2ccccc2c2nc3c(ccc4cc[nH]c43)c(-c3ccccc3Br)c12
IC50 (B16-F10): 70.7 µM

IC50 (Plasmodium falciparum): 0.042 to 0.09 µg/mL (≈ 0.0695 to 0.149 µM)
SMILES: COc1ccc(NN2C(N)=C(C#N)C(c3c(C)nn(-c4ccccc4)c3Oc3cccc(F)c3)C3=C2CC(C)(C)CC3=O)cc1 (stereo not drawn)

SMILES: COc1ccc(-c2c3ccc4cc[nH]c4c3nc3c2c(=O)oc2ccccc23)cc1
IC50 (B16-F10): 70.7 µM

SMILES: O=c1oc2ccccc2c2nc3c(ccc4cc[nH]c43)c(-c3ccc([N+](=O)[O-])cc3)c12
IC50 (B16-F10): 70.7 µM

IC50 (Plasmodium falciparum): 0.042 to 0.09 µg/mL (≈ 0.0654 to 0.14 µM)
SMILES: Cc1nn(-c2ccccc2)c(Oc2cccc(C(F)(F)F)c2)c1C1C(C#N)=C(N)N(Nc2ccc(F)cc2)C2=C1C(=O)CC(C)(C)C2 (stereo not drawn)

MIC (Bacillus subtilis): 8 µg/mL (≈ 15.3 µM)
SMILES: O=C1CCCC2=C1C1(C(=O)N2c2ccc(Cl)cc2)C2=C(Nc3ccc([N+](=O)[O-])cc31)c1ccccc1C2=O (stereo not drawn)

IC50 (Plasmodium falciparum): 0.042 to 0.09 µg/mL (≈ 0.0709 to 0.152 µM)
SMILES: Cc1nn(-c2ccccc2)c(Oc2ccccc2F)c1C1C(C#N)=C(N)N(Nc2ccc(F)cc2)C2=C1C(=O)CC(C)(C)C2 (stereo not drawn)

SMILES: CC(=O)c1ccc(Cl)c(Cl)c1
IC50 (HepG2): 984 nM
